Measurements as given in ChEMBL document CHEMBL5154767, “Discovery of dual-target ligands binding to beta2-adrenoceptor and cysteinyl-leukotriene receptor for the potential treatment of asthma from natural products derived DNA-encoded library” (Eur J Med Chem, 2022).
Calls of active or inactive are those of the source. The rule behind the calls is not given here.

Experiments:
[1] = target: T1, Uracil nucleotide/cysteinyl leukotriene receptor (Homo sapiens, UniProt Q13304); assay: Binding affinity to immobilized Halo tag-fused CysLT receptor (unknown origin) expressed in Escherichia coli BL21 (DE3) assessed as dissociation rate constant by receptor chromatography
T1 sequence (Q13304 whole entry, the tested form may be a part): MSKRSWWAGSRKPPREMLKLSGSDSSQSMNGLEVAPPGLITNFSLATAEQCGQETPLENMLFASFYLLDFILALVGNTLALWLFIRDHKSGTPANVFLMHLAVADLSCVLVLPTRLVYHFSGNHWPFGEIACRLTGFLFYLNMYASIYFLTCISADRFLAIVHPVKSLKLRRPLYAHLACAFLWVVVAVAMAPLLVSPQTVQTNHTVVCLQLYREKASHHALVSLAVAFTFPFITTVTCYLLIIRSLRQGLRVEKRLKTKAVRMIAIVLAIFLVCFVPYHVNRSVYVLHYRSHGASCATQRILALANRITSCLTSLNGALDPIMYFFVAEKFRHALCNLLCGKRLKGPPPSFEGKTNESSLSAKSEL

[2] = target: T1, Uracil nucleotide/cysteinyl leukotriene receptor
Description: Binding affinity to immobilized Halo tag-fused CysLT receptor (unknown origin) expressed in Escherichia coli BL21 (DE3) assessed as retention time by chromatography

[3] = target: T1, Uracil nucleotide/cysteinyl leukotriene receptor; remark: listed apart in the source
Description: Binding affinity to immobilized Halo tag-fused CysLT receptor (unknown origin) expressed in Escherichia coli BL21 (DE3) assessed as association rate constant by receptor chromatography

Mus musculus [4] = assay: Anti-asthmatic activity against ovalbumin-induced asthmatic mouse model assessed as infiltration of inflammatory cells in the perivascular and peribronchiolar region of lungs at 2.6 mg/kg, po administered once daily for 7 days by H and E staining based light microscopic analysis; type: functional, organism-based; conditions: time 7.0 day
Mus musculus [5] = assay: Anti-asthmatic activity against ovalbumin-induced asthmatic mouse model assessed as decrease in IgE level in serum at 2.6 mg/kg, po administered once daily for 7 days by ELISA; type: functional, organism-based; conditions: time 7.0 day
Mus musculus [6] = assay: Anti-asthmatic activity against ovalbumin-induced asthmatic mouse model assessed as decrease in IL-4 level in BALF at 2.6 mg/kg, po administered once daily for 7 days by ELISA; type: functional, organism-based; conditions: time 7.0 day
Mus musculus [7] = assay: Anti-asthmatic activity against ovalbumin-induced asthmatic mouse model assessed as decrease in IL-5 level in BALF at 2.6 mg/kg, po administered once daily for 7 days by ELISA; type: functional, organism-based; conditions: time 7.0 day
Mus musculus [8] = assay: Increase in beta2 adrenoceptor expression in bronchus in ovalbumin-induced asthmatic mouse model at 2.6 mg/kg, po administered once daily for 7 days by Western blot analysis; type: functional, organism-based; conditions: time 7.0 day
[9] = target: T2, Beta-2 adrenergic receptor (Homo sapiens, UniProt P07550); assay: Binding affinity to immobilized Halo tag-fused beta2 adrenoceptor (unknown origin) expressed in Escherichia coli BL21 (DE3) assessed as retention time by chromatography
Target sequence in this assay (P07550 whole entry, looked up, the tested form may be a part): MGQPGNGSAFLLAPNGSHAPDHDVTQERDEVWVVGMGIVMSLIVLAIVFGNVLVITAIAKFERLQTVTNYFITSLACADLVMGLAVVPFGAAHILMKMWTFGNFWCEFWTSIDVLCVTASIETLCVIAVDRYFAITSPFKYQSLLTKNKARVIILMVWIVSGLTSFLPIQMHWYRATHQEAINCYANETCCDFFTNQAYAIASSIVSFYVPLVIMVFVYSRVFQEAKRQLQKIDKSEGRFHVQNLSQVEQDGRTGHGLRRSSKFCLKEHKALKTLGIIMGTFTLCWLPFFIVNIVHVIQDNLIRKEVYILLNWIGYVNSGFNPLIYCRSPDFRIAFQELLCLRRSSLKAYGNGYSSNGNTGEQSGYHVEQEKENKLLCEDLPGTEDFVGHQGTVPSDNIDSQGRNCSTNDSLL

Mus musculus [10] = assay: Anti-asthmatic activity against ovalbumin-induced asthmatic mouse model assessed as infiltration of inflammatory cells in the perivascular and peribronchiolar region of lungs at 20 mg/kg, po administered once daily for 7 days by H and E staining based light microscopic analysis; type: functional, organism-based; conditions: time 7.0 day
[11] = target: T2, Beta-2 adrenergic receptor; assay: Binding affinity to immobilized Halo tag-fused beta2 adrenoceptor (unknown origin) expressed in Escherichia coli BL21 (DE3) by receptor chromatography
Target sequence in this assay (P07550 whole entry, looked up, the tested form may be a part): as above

[12] = target: T2, Beta-2 adrenergic receptor; assay: Binding affinity to immobilized Halo tag-fused beta2 adrenoceptor (unknown origin) expressed in Escherichia coli BL21 (DE3) assessed as dissociation rate constant by receptor chromatography
Target sequence in this assay (P07550 whole entry, the tested form may be a part): as the sequence (P07550 whole entry, looked up, the tested form may be a part) above

[13] = target: T2, Beta-2 adrenergic receptor; assay: Binding affinity to immobilized Halo tag-fused beta2 adrenoceptor (unknown origin) expressed in Escherichia coli BL21 (DE3) assessed as association rate constant by receptor chromatography
Target sequence in this assay (P07550 whole entry, looked up, the tested form may be a part): as above

Mus musculus [14] = assay: Anti-asthmatic activity against ovalbumin-induced asthmatic mouse model assessed as decrease in IgE level in serum administered orally once daily for 7 days by ELISA; type: functional, organism-based; conditions: dose 10-20 mg/kg, route po, time 7.0 day, DDE = dose-dependent effect
Mus musculus [15] = assay: Anti-asthmatic activity against ovalbumin-induced asthmatic mouse model assessed as decrease in IL-13 level in BALF administered orally once daily for 7 days by ELISA; type: functional, organism-based; conditions: dose 10-20 mg/kg, route po, time 7.0 day, DDE = dose-dependent effect
Mus musculus [16] = assay: Anti-asthmatic activity against ovalbumin-induced asthmatic mouse model assessed as infiltration of inflammatory cells in the perivascular and peribronchiolar region of lungs at 10 to 20 mg/kg, po administered once daily for 7 days by H and E staining based light microscopic analysis; type: functional, organism-based; conditions: dose 10-20 mg/kg, time 7.0 day
Mus musculus [17] = assay: Anti-asthmatic activity against ovalbumin-induced asthmatic mouse model assessed as decrease in IL-4 level in BALF administered orally once daily for 7 days by ELISA; type: functional, organism-based; conditions: dose 10-20 mg/kg, route po, time 7.0 day, DDE = dose-dependent effect
Mus musculus [18] = assay: Increase in beta2 adrenoceptor expression in bronchus in ovalbumin-induced asthmatic mouse model administered orally once daily for 7 days by Western blot analysis; type: functional; conditions: dose 10-20 mg/kg, route po, time 7.0 day, DDE = dose-dependent effect
Mus musculus [19] = assay: Decrease in CysLT receptor expression in bronchus in ovalbumin-induced asthmatic mouse model administered orally once daily for 7 days by Western blot analysis; type: functional; conditions: dose 10-20 mg/kg, route po, time 7.0 day, DDE = dose-dependent effect

Compound	Kd [1]	Retention time [2]	Ka [3]	Retention time [9]	K [11]	Kd [12]	Ka [13]	also measured
CC(C)(O)c1ccccc1CC[C@@H](SCC1(CC(=O)[O-])CC1)c1cccc(/C=C/c2ccc3ccc(Cl)cc3n2)c1.[Na+] [MONTELUKAST SODIUM]	12.6 s⁻¹	8.7 min	5.18 10^5/M/s	–	–	–	–	–
CC(c1cc2ccccc2s1)N(O)C(N)=O (stereo unspecified)	–	3.5 min	–	–	–	–	–	–
CN(C)C(=O)Oc1cc(OC(=O)N(C)C)cc(C(O)CNC(C)(C)C)c1 (stereo unspecified)	–	–	–	4.1 min	–	–	–	Activity (Mus musculus [4]): Active; Activity (Mus musculus [5]): Active; Activity (Mus musculus [6]): Active; Activity (Mus musculus [7]): Active; Activity (Mus musculus [8]): Active
CC1(C)[C@@H](O)CC[C@]2(C)[C@H]3C(=O)C=C4[C@@H]5C[C@@](C)(C(=O)O)CC[C@]5(C)CC[C@@]4(C)[C@]3(C)CC[C@@H]12	–	–	–	–	–	–	–	Activity (Mus musculus [10]): Active
CNC(C)Cc1ccccc1OC (stereo unspecified) [METHOXYPHENAMINE]	–	–	–	3.6 min	0.5 10^4/M	0.98 s⁻¹	1.93 10^5/M/s	–
CC1(C)[C@@H](O)CC[C@]2(C)[C@H]3C(=O)C=C4[C@@H]5C[C@@](C)(C(=O)NCCc6ccc(O)cc6)CC[C@]5(C)CC[C@@]4(C)[C@]3(C)CC[C@@H]12	17.2 s⁻¹	–	4.85 10^5/M/s	–	6.57 10^4/M	7.52 s⁻¹	4.94 10^5/M/s	Activity (Mus musculus [14]): Dde; Activity (Mus musculus [15]): Dde; Activity (Mus musculus [16]): Active; Activity (Mus musculus [17]): Dde; Activity (Mus musculus [18]): Dde; inhibition (Mus musculus [19]): Dde
